Laboratory results: US5236955A, “Anti-fungal agent” (Washington University, priority 1992, dated 1993)

Tests used:
C. albicans NMT = biological target: T1, C. albicans NMT (Candida albicans, UniProt P30418); assay: In vitro discontinuous NMT assay; type: biochemical; settings: 40 μM fatty acid, HIV-1 Pr55gag octapeptide
T1 construct: made in house; host or cells: E. coli
Method: (§1) Details of the single point, discontinuous, in vitro NMT assay are described in Examples, below. A tritiated octapeptide derived from residues 2-9 of […] HIV-I Pr55^gag (GARA[^3 H]SVLS-NH2) was used in all assays. The amount of analogpeptide produced is expressed as a percentage of myristoylpeptide generated in a control incubation. All assays were performed in triplicate. The mean ±1 standard deviation is shown. Under the assay conditions employed, the amount of myristoylpeptide generated by purified E. coli-derived S. cerevisiae NMT ranged from 5×10^5 to 2×10^6 pmol/mg enzyme/min while the amount of myristolypeptide produced by purified E. coli-derived, C. albicans NMT ranged from 4×10^5 to 1.5×10^6 pmol/mg enzyme/mni.
(§2) In vitro discontinuous NMT assay--This assay was carried out by conventional procedures as described by Duronio et al., Methods: A Companion to Methods in Enzymol. 1, 253-263 (1990); Kishore et al., J. Biol. Chem. 266, 8835-8853 (1991). Briefly, a single point assay was performed by first converting myristic acid or a fatty acid analog (final concentration=40 μM) to its CoA thioester using Pseudomonas acylCoA synthetase (EC 6.2.1.3, Sigma Chemical Co.). Following a 25 min incubation at 30° C., purified E. coli derived S. cerevisiae or C. albicans NMT [Rudnick et al., Ibid. 265, 13370-13378 (1990); Wiegand et al., J. Biol. Chem. 267, 8591-8598 (1992)], final concentration=0.1 μg/ml, was added to the reaction mixture together with a tritiated peptide substrate derived from residues 2-9 of the HIV-1 Pr55^gag (Gly-Ala-Arg-[^3 H]Ala-Ser-Val-Leu-Ser-NH2) [Kishore et al., supra (1991); specific activity=1.2 Ci/mmol; final concentration=23 μM]. After an additional 10 min incubation at 30° C., the enzymatically generated, radiolabeled acylpeptide was purified by reverse phase HPLC and quantitated using an in-line scintillation counter [Kishore et al., supra, (1991)]. The amount of analogpeptide formed was expressed as a percentage of the amount of myristoylpeptide formed in a parallel reference assay. All assays were performed in duplicate or triplicate.
(§3) In vitro studies of purified S. cerevisiae and C. albicans NMT reveal differences in the kinetic properties of oxatetradecanoic and oxatridecanoic acid analogs--To begin to understand the mechanism which underlies the fungicidal activities of some but not all of the oxygen containing fatty acid analogs, the relative activities of the sixteen oxatri-, oxatetradecanoic acids and dioxatetradecanoic acids were examined in an in vitro assay. The two step assay measures NMT-dependent transfer of the acyl chain from an enzymatically generated acylCoA to a radiolabeled peptide substrate. […]

S. cerevisiae NMT = biological target: T2, S. cerevisiae NMT (Saccharomyces cerevisiae, UniProt P14743); assay: In vitro discontinuous NMT assay; type: biochemical; settings: 40 μM fatty acid, HIV-1 Pr55gag octapeptide
T2 construct: made in house; host or cells: E. coli
Method: as §1, §2, §3

C. neoformans [1] = assay: Viability of C. neoformans (viable cells relative to EtOH control culture); type: cell-based, Cryptococcus neoformans; settings: for fungicidal / fungistatic effect on C. neoformans: screening assay; for log reduction at 300 µM: relative to 0.1% EtOH control, read-out: decrease in viable cells (converted); for attenuation of fungicidal activity on shortening by one methylene: versus corresponding oxatetradecanoic acid, 300 μM
Method: (§4) Panel A, survey of the effects of several oxatetradecanoic acids on the growth of C. neoformans. A culture of C. neoformans was grown at 30° C. in SAB media to midlog phase (A600 ~0.5). A single dose of fatty acid was then added to subcultures (final concentration=300 μM). EtOH(0.1%) was used as a negative control. Amphotericin B (AmB) was added (final concentraton=55 μM) as a positive control. Aliquots were withdrawn from the subcultures 0, 0.5, 2, 4, 7, 21, and 24 h after these additions and then absorbance at 600 nm was measured. All assays were done in duplicate or triplicate. A representative test is shown. Panel B, survey of the effects of oxatetradecanoic acids, dioxatetradecanoic acids and oxatridecanoic acids on the viability of C. neoformans. Fatty acid analog was added to the cultures as in Panel A. Aliquots were withdrawn 0.5, 2, 4, 7 or 8, and 24 h later and plated on SAB-agar at various dilutions to determine the number of viable organisms/ml culture. All assays were done in duplicate. Data from a representative test are expressed as the ratio of viable cells in treated cultures relative to a control culture that received 0.1% EtOH. A positive control culture received a single dose of amphotericin B (55 μM); Panel C, dose-dependent reduction in the viability of C. neoformans after addition of 4-oxatetradecanoic acid (O4) to cultures during log-phase growth at 30° C. in SAB. A single dose of the analog was given at T=0 h in the amount indicated and aliquots of the culture were withdrawn at various times to determine the number of viable cells. All assays were done in triplicate. A representative test is shown.
(§5) Saccharomyces cerevisiae strain YM2061 (MATa ura3-52 his3Δ200 ade2-101 lys2-801 met LEU2::pRY181 can1; Flick and Johnston, Mol. Cell. Biol. 10, 4757-4769 (1990), Candida albicans strain B311 (obtained from the American Type Tissue Culture, Rockville, Md.), or Cryptococcus neoformans strain L210425 (a clinical isolate that is part of the permanent culture collection of the Mycology Laboratory, Barnes Hospital, St. Louis, Mo.) were grown overnight at 30 C. The S. cerevisiae strain was incubated in YPD medium (1% bacto-yeast extract, Gibco, Long Island, N.Y.), 2% bacto-peptone (Gibco), 2% dextrose). The C. albicans and C. neoformans strains were grown in Sabouraud's media (SAB; 2% (w/v) dextrose, 1% bacto-peptone). The following morning the cultures were diluted into fresh medium to the desired density at 600 nm (early log phase), and subsequently incubated in a rotary shaker at 30° C. until an A600 =0.5 (mid log phase) was achieved. The culture was then divided into 10 ml aliquots. A single 10 μl aliquot of a stock solution of fatty acid analog (prepared in various concentrations using absolute ethanol) was added to the culture so that the final concentration of the compound was 100-500 μM (T=0). Ten microliters of ethanol alone was added to one 10 ml culture which served as the negative control. Amphotericin B (AmB; in the form of Fungizone, Squibb) was added (final concentration=55 μM) to another culture which served as the positive control. At T=0 and 0.5-24 h after addition of fatty acid analog to the subcultures, an aliquot was removed for determining the density of the subculture at 600 nm. Cell viability was determined at each of these time points by (i) serially diluting the aliquot in 0.15M NaCl and counting cell number in a hemocytometer and (ii) plating 2-3 of the dilutions in triplicate onto plates of SAB/agar (C. albicans and C. neoformans) or YPD/agar (S. cerevisiae). These plates were subsequently incubated at 30° C. for 24-48 hr to allow for the growth of colonies. The data were expressed as the ratio of viable cells/ml in the fatty acid analog treated subculture to the number of viable cells/ml in the negative (ethanol) control culture.

C. neoformans [2] = assay: Growth of C. neoformans cultures (absorbance at 600 nm); type: cell-based, Cryptococcus neoformans
Method: as §4
as §5, with “Amphotericin B (AmB; in the form of Fungizone, Squibb) was added (final concentration=55 μM) to another culture which served as the positive control. At T=0 and 0.5-24 h after addition of fatty acid analog to the subcultures, an aliquot was removed for determining the density of the subculture at 600 nm.” left out, “These plates were subsequently incubated at 30° C. for 24-48 hr to allow for the growth of colonies.” left out, “culture. […]” for “culture.”

C. albicans = assay: Viability of C. albicans; type: cell-based; settings: Candida albicans
Method: (§6) Oxatetradecanoic acids were added (final concentraton=25-500 μM) as a single dose to log phase cultures of C. alibcans grown in SAB at 30° C. (Panels A and B) and to log phase cultures of S. cerevisiae grown in YPD at 30° C. (Panels C and D). The results were compared to the number of viable organisms present in cultures treated with 0.1% EtOH alone. […] A single does of alphotericin B (final concentration=55 μM) was added to parallel cultures which served as positive controls. Assays were done in duplicate. Representative tests are shown.
as §5

S. cerevisiae = assay: Viability of S. cerevisiae; type: cell-based; settings: Saccharomyces cerevisiae
Method: as §6, §5

[3] = Cryptococcus neoformans, 300 μM single dose

T1 sequence (P30418 whole entry): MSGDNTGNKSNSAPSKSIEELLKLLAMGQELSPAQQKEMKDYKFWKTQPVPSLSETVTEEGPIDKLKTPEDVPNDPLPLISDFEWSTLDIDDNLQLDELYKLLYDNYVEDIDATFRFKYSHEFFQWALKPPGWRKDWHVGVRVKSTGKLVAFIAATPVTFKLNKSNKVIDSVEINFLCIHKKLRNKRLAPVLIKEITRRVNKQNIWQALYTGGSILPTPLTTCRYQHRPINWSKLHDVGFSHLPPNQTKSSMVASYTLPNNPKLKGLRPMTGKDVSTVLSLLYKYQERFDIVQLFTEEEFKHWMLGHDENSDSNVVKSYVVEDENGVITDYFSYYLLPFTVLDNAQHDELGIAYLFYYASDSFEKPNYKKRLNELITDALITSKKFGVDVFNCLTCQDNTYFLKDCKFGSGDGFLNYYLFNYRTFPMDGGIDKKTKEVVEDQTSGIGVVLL
T2 sequence (P14743 whole entry): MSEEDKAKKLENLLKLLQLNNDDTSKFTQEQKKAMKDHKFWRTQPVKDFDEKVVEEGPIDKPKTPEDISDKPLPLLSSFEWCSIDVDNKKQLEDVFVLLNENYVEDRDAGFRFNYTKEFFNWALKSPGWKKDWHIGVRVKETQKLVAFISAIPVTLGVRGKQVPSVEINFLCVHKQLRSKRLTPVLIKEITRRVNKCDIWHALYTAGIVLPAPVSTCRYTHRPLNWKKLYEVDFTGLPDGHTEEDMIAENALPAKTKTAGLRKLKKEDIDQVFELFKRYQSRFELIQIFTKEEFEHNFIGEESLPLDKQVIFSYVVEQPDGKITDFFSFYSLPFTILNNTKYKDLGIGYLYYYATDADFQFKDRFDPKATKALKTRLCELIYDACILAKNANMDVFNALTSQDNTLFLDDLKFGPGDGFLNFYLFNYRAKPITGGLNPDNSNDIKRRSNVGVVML

SMILES: CCCCCCCCCCCOCC(=O)SCCNC(=O)CCNC(=O)[C@H](O)C(C)(C)COP(=O)(O)OP(=O)(O)OC[C@H]1O[C@@H](n2cnc3c(N)ncnc32)[C@H](O)[C@@H]1OP(=O)(O)O [3-oxatetradecanoylCoA]
- activity of analogCoA relative to myristoylCoA (C. albicans NMT): equivalent to myristate
- activity of analogCoA relative to myristoylCoA (S. cerevisiae NMT): equivalent to myristate

SMILES: COCCCCCCCCOCCC(=O)O [4,13 dioxatetradecanoic acid, 4,13-Dioxatetradecanoic acid]
- fungicidal / fungistatic effect on C. neoformans (C. neoformans [1]; 300 μM single dose): did not convert O13 to an active analog

SMILES: CCCCCCCCCCOCCC(=O)SCCNC(=O)CCNC(=O)[C@H](O)C(C)(C)COP(=O)(O)OP(=O)(O)OC[C@H]1O[C@@H](n2cnc3c(N)ncnc32)[C@H](O)[C@@H]1OP(=O)(O)O [4-oxatetradecanoylCoA]
- activity of analogCoA relative to myristoylCoA (C. albicans NMT): -3 fold
- activity of analogCoA relative to myristoylCoA (S. cerevisiae NMT): -3 fold

SMILES: CCCCCCCCCOCCC(=O)O [4-oxatridecanoic acid, 4-Oxatridecanoic acid]
- time needed to produce the decrease in viable cells (C. neoformans [1]; 300 μM single dose): 6 to 7 h
- log reduction at 300 µM (C. neoformans [1]; [3]): 3
- attenuation of fungicidal activity on shortening by one methylene (C. neoformans [1]): 10 fold

SMILES: COCCCCCCCOCCCC(=O)O [5,13 dioxatetradecanoic acid, 5,13-Dioxatetradecanoic acid]
- fungicidal / fungistatic effect on C. neoformans (C. neoformans [1]; 300 μM single dose): did not convert O13 to an active analog

SMILES: CCCCCCCCOCCCC(=O)O [5-oxatridecanoic acid, 5-Oxatridecanoic acid]
- fungicidal / fungistatic effect on C. neoformans (C. neoformans [1]; 300 μM single dose): not active
- attenuation of fungicidal activity on shortening by one methylene (C. neoformans [1]): 10 fold

SMILES: C[C@@H]1[C@H](O)[C@@H](C)/C=C/C=C/C=C/C=C/C=C/C=C/C=C/[C@H](O[C@@H]2O[C@H](C)[C@@H](O)[C@H](N)[C@@H]2O)C[C@@H]2O[C@](O)(C[C@@H](O)C[C@@H](O)[C@H](O)CC[C@@H](O)C[C@@H](O)CC(=O)O[C@H]1C)C[C@H](O)[C@H]2C(=O)O [Amphotericin B, reference compound]
- effect on growth of C. neoformans, as determined by optical density (C. neoformans [2]; 55 μM, positive control): growth arrest
- log reduction at 55 µM (C. neoformans [1]; Cryptococcus neoformans, read-out: reduction in viable cell number): 6

SMILES: CCCCCCCCCOCCCC(=O)O [O5, 5-oxatetradecanoic acid]
- fungicidal / fungistatic effect on C. neoformans (C. neoformans [1]; 300 μM single dose): fungicidal
- log reduction at 300 µM (C. neoformans [1]; [3]): 3
- log reduction at 300 µM (C. albicans; 300 μM, 2 hr after addition, read-out: reductions in the number of viable C. albicans): < 0.699
- log reduction at 500 µM (C. albicans; 500 μM, read-out: reduction in the number of viable organisms (C. albicans)): 1 to 2
- log reduction at 300 µM (S. cerevisiae; 300 μM, 2 hr after addition, read-out: reductions in the number of viable S. cerevisiae): < 0.699
- log reduction at 500 µM (S. cerevisiae; 500 μM, read-out: reduction in the number of viable organisms (S. cerevisiae)): 1 to 2

SMILES: CCCCCCCOCCCCCC(=O)O [O7]
- fungicidal / fungistatic effect on C. neoformans (C. neoformans [1]; 300 μM single dose): no measurable effect on the growth

SMILES: CCCCCCOCCCCCCC(=O)O [O8]
- fungicidal / fungistatic effect on C. neoformans (C. neoformans [1]; 300 μM single dose): no measurable effect on the growth

SMILES: CCCCOCCCCCCCCC(=O)O [O10]
- fungicidal / fungistatic effect on C. neoformans (C. neoformans [1]; 300 μM single dose): no measurable effect on the growth

SMILES: CCCOCCCCCCCCCC(=O)O [O11, 11-Oxatetradecanoic acid]
- effect on growth of C. neoformans, as determined by optical density (C. neoformans [2]; single 300 μM dose, exponential phase, 30° C., SAB, up to 24 h): virtually no effect on growth
- fungicidal / fungistatic effect on C. neoformans (C. neoformans [1]; 300 μM single dose): no measurable effect on the growth

SMILES: CCOCCCCCCCCCCC(=O)O [O12]
- fungicidal / fungistatic effect on C. neoformans (C. neoformans [1]; 300 μM single dose): no measurable effect on the growth
